Results published in ChEMBL document CHEMBL4622974, “Leveraging an Open Science Drug Discovery Model to Develop CNS-Penetrant ALK2 Inhibitors for the Treatment of Diffuse Intrinsic Pontine Glioma” (J Med Chem, 2020).
pIC50: −log10 of the molar value. Activity calls are given as the source filed them. The rule behind the calls is not given here.

How the values were obtained:
[1] = Clearance in CB17 SCID mouse at 2 mg/kg, iv after 0.25 to 24 hrs by LC/MS/MS method; format: ADME, organism-based; settings: in vivo
[2] = Volume of distribution at steady state in CB17 SCID mouse at 2 mg/kg, iv after 0.25 to 24 hrs by LC/MS/MS method; format: ADME, organism-based; settings: in vivo, read-out: Vdss
[3] = Oral bioavailability in CB17 SCID mouse at 10 mg/kg after 0.25 to 24 hrs by LC/MS/MS method; format: ADME, organism-based; settings: in vivo
[4] = Ratio of drug level in brain to plasma in CB17 SCID mouse at 100 mg/kg, po measured at 4 h; format: ADME, organism-based; settings: brain and plasma, read-out: BPR
[5] = Stability in human liver microsomes assessed as compound remaining at 1 uM incubated for 60 mins by LC/MS analysis; format: ADME, Microsome; settings: read-out: Stability
[6] = Protein binding in human plasma at 5 uM after 4 hrs by rapid equilibrium dialysis; format: ADME, cell-free; settings: read-out: PPB (converted)
Misshapen-like kinase 1 = Misshapen-like kinase 1 (Homo sapiens, UniProt Q8N4C8); test: Inhibition of MINK (unknown origin)
[7] = molecular target: Tyrosine-protein kinase ABL1 (Homo sapiens, UniProt P00519); test: Inhibition of ABL1 (unknown origin)
Sequence of Tyrosine-protein kinase ABL1 (P00519 whole entry): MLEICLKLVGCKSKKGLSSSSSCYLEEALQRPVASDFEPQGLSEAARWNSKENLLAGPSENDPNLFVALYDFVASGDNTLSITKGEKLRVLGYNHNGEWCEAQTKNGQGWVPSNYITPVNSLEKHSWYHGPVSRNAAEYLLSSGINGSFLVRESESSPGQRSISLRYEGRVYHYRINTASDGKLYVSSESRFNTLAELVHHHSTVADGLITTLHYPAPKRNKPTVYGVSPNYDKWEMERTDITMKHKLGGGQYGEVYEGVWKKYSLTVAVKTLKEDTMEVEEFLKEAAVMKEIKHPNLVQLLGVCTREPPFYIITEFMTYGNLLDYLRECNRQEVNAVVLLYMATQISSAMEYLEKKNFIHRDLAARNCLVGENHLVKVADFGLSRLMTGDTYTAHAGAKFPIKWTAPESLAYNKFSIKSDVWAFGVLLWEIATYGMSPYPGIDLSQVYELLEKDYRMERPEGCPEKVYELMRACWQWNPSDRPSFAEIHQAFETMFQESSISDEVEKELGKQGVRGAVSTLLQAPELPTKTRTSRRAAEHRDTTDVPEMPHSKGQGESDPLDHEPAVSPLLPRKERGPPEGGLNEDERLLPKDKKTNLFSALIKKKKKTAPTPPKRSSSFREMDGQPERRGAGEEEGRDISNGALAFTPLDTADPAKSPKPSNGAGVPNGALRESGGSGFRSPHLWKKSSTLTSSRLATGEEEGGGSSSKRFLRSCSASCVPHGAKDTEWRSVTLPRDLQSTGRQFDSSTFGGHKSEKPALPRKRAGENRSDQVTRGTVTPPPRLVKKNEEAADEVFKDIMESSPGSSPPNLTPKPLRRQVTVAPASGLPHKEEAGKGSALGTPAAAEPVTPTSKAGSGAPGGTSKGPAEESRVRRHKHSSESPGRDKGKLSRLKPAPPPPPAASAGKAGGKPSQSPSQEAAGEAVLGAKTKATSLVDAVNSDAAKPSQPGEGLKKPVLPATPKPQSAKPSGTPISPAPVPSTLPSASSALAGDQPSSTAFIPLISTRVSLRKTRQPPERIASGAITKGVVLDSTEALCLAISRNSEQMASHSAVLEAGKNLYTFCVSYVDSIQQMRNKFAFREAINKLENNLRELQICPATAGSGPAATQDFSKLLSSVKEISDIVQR

[8] = Half life in human liver microsomes at 1 uM incubated for 60 mins by LC/MS analysis; format: ADME, Microsome
[9] = Oral bioavailability in SD rat at 10 mg/kg after 0.25 to 24 hrs by LC/MS/MS method; format: ADME, organism-based; settings: in vivo
[10] = Toxicity in CB17 SCID mouse assessed as induction of adverse effect at 2 mg/kg, iv; format: organism-based; settings: in vivo
Activin receptor type-1B = molecular target: T1, Activin receptor type-1B (Homo sapiens, UniProt P36896); test: Inhibition of human ALK4 using casein as substrate in presence of [gamma-33P]-ATP by radiometric hotspot assay; format: ADME
T1 sequence (P36896 whole entry): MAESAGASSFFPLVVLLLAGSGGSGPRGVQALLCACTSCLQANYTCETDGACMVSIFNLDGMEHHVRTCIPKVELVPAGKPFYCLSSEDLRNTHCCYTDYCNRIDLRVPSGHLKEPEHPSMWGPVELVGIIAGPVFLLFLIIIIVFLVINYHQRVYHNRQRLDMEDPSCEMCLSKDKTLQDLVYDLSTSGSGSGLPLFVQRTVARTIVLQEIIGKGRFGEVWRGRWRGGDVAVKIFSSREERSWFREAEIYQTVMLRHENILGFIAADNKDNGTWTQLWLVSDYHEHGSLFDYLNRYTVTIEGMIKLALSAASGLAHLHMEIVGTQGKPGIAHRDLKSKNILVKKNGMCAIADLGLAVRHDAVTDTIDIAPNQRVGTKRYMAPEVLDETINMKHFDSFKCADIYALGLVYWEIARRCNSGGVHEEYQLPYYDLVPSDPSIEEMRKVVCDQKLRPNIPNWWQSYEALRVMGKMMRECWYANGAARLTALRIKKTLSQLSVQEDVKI

[11] = Growth inhibition of human SU-DIPG-XXI cells harboring ACVR1 G328W mutant; format: functional
[12] = Toxicity in CB17 SCID mouse assessed as induction of adverse effect at 10 mg/kg, po; format: organism-based; settings: in vivo
[13] = Protein binding in human plasma assessed as free fraction at 5 uM after 4 hrs by rapid equilibrium dialysis; format: ADME, cell-free
[14] = Clearance in SD rat at 2 mg/kg, iv after 0.25 to 24 hrs by LC/MS/MS method; format: ADME, organism-based; settings: in vivo
[15] = Cmax in CB17 SCID mouse at 10 mg/kg, po after 0.25 to 24 hrs by LC/MS/MS method; format: ADME, organism-based; set-up: dose 10 mg/kg, route oral; settings: in vivo
[16] = Half life in SD rat at 10 mg/kg, po after 0.25 to 24 hrs by LC/MS/MS method; format: ADME, organism-based; settings: in vivo
[17] = Cmax in SD rat at 10 mg/kg, po after 0.25 to 24 hrs by LC/MS/MS method; format: ADME, organism-based; set-up: dose 10 mg/kg, route oral; settings: in vivo
[18] = AUCinfinity in SD rat at 10 mg/kg, po after 0.25 to 24 hrs by LC/MS/MS method; format: ADME, organism-based; set-up: dose 10 mg/kg, route oral, time infinity; settings: in vivo
[19] = molecular target: Mitogen-activated protein kinase kinase kinase 20 (Homo sapiens, UniProt Q9NYL2); test: Inhibition of ZAK (unknown origin)
[20] = Toxicity in CB17 SCID mouse assessed as behavioural abnormalities at 100 mg/kg, po measured after 24 hrs; format: organism-based; settings: in vivo
[21] = AUCinfinity in CB17 SCID mouse at 10 mg/kg, po after 0.25 to 24 hrs by LC/MS/MS method; format: ADME, organism-based; set-up: dose 10 mg/kg, time infinity, route oral; settings: in vivo
[22] = Half life in CD1 mouse liver microsomes at 1 uM incubated for 60 mins by LC/MS analysis; format: ADME, Microsome
[23] = molecular target: TRAF2 and NCK-interacting protein kinase (Homo sapiens, UniProt Q9UKE5); test: Inhibition of TNIK (unknown origin)
[24] = Toxicity in CB17 SCID mouse assessed as physical abnormalities at 100 mg/kg, po measured after 24 hrs; format: organism-based; settings: in vivo
[25] = molecular target: Epithelial discoidin domain-containing receptor 1 (Homo sapiens, UniProt Q08345); test: Inhibition of DDR1 (unknown origin)
Sequence of Epithelial discoidin domain-containing receptor 1 (Q08345 whole entry, the tested form may be a part): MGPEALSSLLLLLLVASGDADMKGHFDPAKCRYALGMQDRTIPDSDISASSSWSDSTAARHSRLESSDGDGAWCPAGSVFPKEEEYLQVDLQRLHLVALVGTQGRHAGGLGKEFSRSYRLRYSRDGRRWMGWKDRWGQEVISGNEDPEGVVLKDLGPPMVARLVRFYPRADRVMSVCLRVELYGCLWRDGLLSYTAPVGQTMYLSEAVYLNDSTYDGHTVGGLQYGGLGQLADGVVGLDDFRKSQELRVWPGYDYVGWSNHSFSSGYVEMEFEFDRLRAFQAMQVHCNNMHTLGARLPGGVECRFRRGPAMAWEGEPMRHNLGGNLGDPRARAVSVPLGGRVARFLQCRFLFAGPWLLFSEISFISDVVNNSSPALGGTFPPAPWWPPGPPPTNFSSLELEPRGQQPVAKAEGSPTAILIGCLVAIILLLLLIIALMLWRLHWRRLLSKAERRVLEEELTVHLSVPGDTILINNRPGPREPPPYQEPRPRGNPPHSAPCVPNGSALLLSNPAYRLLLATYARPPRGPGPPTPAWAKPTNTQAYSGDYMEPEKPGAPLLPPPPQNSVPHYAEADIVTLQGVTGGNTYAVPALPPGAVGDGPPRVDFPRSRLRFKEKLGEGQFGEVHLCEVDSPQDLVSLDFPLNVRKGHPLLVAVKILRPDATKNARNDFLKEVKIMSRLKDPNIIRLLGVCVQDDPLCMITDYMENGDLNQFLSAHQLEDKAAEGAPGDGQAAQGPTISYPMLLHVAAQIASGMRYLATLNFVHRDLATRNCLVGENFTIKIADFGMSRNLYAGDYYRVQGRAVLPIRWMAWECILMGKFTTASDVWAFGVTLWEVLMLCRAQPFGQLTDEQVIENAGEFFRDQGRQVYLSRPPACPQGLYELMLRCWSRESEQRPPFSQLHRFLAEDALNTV

[26] = Half life in CB17 SCID mouse at 10 mg/kg, po after 0.25 to 24 hrs by LC/MS/MS method; format: ADME, organism-based; settings: in vivo
[27] = molecular target: Protein-tyrosine kinase 6 (Homo sapiens, UniProt Q13882); test: Inhibition of BRK (unknown origin)
[28] = Stability in CD1 mouse liver microsomes assessed as compound remaining at 1 uM incubated for 60 mins by LC/MS analysis; format: ADME, Microsome; settings: read-out: Stability
[29] = Growth inhibition of human HSJD-DIPG-007 cells harboring ACVR1 R206H mutant; format: functional
[30] = Volume of distribution at steady state in SD rat at 2 mg/kg, iv after 0.25 to 24 hrs by LC/MS/MS method; format: ADME, organism-based; settings: in vivo, read-out: Vdss

COc1cc(-c2cncc(-c3ccc(C4CCN(C)CC4)cc3)c2C)cc(OC)c1OC
clearance [1]: 8.9 mL/min/kg | Vd [2]: 2.44 L/kg | bioavailability [3]: 74% | Kp at 4 h [4]: 1.55 | remaining at 1 h, 1 µM [5]: 71.2% | fraction unbound at 4 h, 5 µM [6]: 0.05 | inhibition (Misshapen-like kinase 1): Active | inhibition [7]: Active | half-life at 1 µM [8]: > 1 h | bioavailability [9]: 50% | Activity [10]: Non-Toxic | pIC50 (Activin receptor type-1B): < 5.70 | GI50 [11]: 0.214 µM | Activity [12]: Non-Toxic | fraction unbound at 4 h, 5 µM [13]: 0.05 | clearance [14]: 15.1 mL/min/kg | Cmax [15]: 4.74 µM | half-life [16]: 3.9 h | Cmax [17]: 1.16 µM | AUC(0-inf) [18]: 12.9 µM·h | inhibition [19]: Active | Activity [20]: Non-Toxic | AUC(0-inf) [21]: 32.4 µM·h | half-life at 1 µM [22]: > 1 h | inhibition [23]: Active | Activity [24]: Non-Toxic | inhibition [25]: Active | half-life [26]: 3.67 h | inhibition [27]: Active | remaining at 1 h, 1 µM [28]: 55.5% | GI50 [29]: 0.036 µM | Vd [30]: 4.33 L/kg

COc1cc(-c2cncc(-c3ccc(N4CCNCC4)cc3)c2C)cc(OC)c1OC
clearance [1]: 12.7 mL/min/kg | Vd [2]: 2.05 L/kg | bioavailability [3]: 100% | Kp at 4 h [4]: 1.1 | remaining at 1 h, 1 µM [5]: 71.4% | fraction unbound at 4 h, 5 µM [6]: 0.057 | pIC50 (Misshapen-like kinase 1): 6.03 to 6.47 | pIC50 [7]: 6.03 to 6.47 | half-life at 1 µM [8]: > 1 h | bioavailability [9]: 96% | Activity [10]: Non-Toxic | pIC50 (Activin receptor type-1B): 5.87 | GI50 [11]: 0.052 µM | Activity [12]: Non-Toxic | fraction unbound at 4 h, 5 µM [13]: 0.057 | clearance [14]: 22.1 mL/min/kg | Cmax [15]: 6.16 µM | half-life [16]: 3.58 h | Cmax [17]: 1.28 µM | AUC(0-inf) [18]: 17.4 µM·h | pIC50 [19]: 6.03 to 6.47 | Activity [20]: Non-Toxic | AUC(0-inf) [21]: 51.7 µM·h | half-life at 1 µM [22]: > 1 h | pIC50 [23]: 7.02 | Activity [24]: Non-Toxic | pIC50 [25]: 7.39 | half-life [26]: 3.11 h | pIC50 [27]: 6.03 to 6.47 | remaining at 1 h, 1 µM [28]: 64.6% | GI50 [29]: 0.13 µM | Vd [30]: 5.22 L/kg
